Assays:
[1] = tested on: HSV-1; assay: In vitro HSV-1 replication (plaque reduction) assay, EC50 and SI50 estimates; assay type: cell-based; parameters: unit not given beside the values; conditions: HFF cells infected with HSV-1
[2] = In vivo toxicity studies in mice (NIH/NIAID preclinical service)
Description: A control group was treated with PBS. […] No signs of distress or significant weight loss were observed during the 4 days of treatment. […]
B. In vivo toxicity studies in mice for bPEI 600 and DAB-Am-4. Experiments were conducted through NIAID/NIH preclinical service agreement No HHSN272201700017I/ […]
Procedures and Endpoints:
1- Baseline weights of all mice
2- IP treatment (twice a day, for 4 days)
3- Daily assessment of weights and condition
4- All animals sacrificed the following morning after the last evening treatment 5- Blood samples collected by IC stick for lab tests (liver, spleen and blood profiles) 6- Internal organs examined for signs of gross tissue toxicity
1. Toxicity evaluation of bPEI 600 Da in mice.
A toxicity screen was performed in uninfected mice treated with 3 doses of bPEI 600 Da, administered for 4 days. In this study, 3 doses of 5, 10 and 25 mg/kg/day were administered twice daily IP for 4 days (n=4/group). A control group was treated with the vehicle (PBS). The mice were examined daily and the weights and general condition were recorded daily. To examine liver, renal and blood function parameters, blood samples were obtained by intracardiac puncture at the end of the study (the following day after last dose) and the mice were sacrificed to examine the internal organs for signs of gross tissue toxicity.
The weights were recorded
In order to confirm the results of the lab results obtained in the toxicity study, a second group of slightly larger mice were treated with the high and the low doses of bPEI 600 Da (25 mg/kg and 5 mg/kg, n=6/group) and the vehicle control (PBS, n=4) for 4 days. Blood samples were collected at the end of the study for liver and renal chemistry profiles. The results are shown in the next […]
REN AL PBS 5 mg/kg 25 mg/kg
LIVER PBS 5 mg/kg 25 mg/kg
Al b:Gl ob R a ti o 1 1 1 […]
obtained from the second group of mice treated with bPEI 600 Da for 4 days.
No signs of distress or significant weight loss were ere observed during the […]
show significant differences with the results obtained in the PBS treated group of control mice.
Statistical analysis: Means were compared by Student’s t test, and mortality was compared by Fisher’s exact test, where applicable.
Ethics regulation of Laboratory animals: Animals were housed in facilities approved by the Association for Assessment and Accreditation of Laboratory Animal Care and Use Committee
2. Toxicity evaluation of DAB-Am-4 in mice.
A toxicity screen in uninfected mice was performed. 2 doses of 5 and 25 mg/kg/day were administered twice daily IP for 4 days (n=6/group). A control group was treated with the vehicle […]
The mice were examined daily and the weights and general condition were recorded. […]

[3] = mice, 5 mg/kg/day twice daily IP, 4 days, Mean, CBC (n=1-2)
[4] = mice, 5 mg/kg/day twice daily IP, 4 days, Mean, LIVER (n=5)
[5] = mice, 5 mg/kg/day twice daily IP, 4 days, Mean, RENAL (n=5)

SMILES: Nc1nc2c(ncn2COCCO)c(=O)[nH]1 [Acyclovir]
- SI50 [1]: ~ 10^2

SMILES: NCCCN(CCCN)CCCN(CCCCN(CCCN(CCCN)CCCN)CCCN(CCCN)CCCN)CCCN(CCCN)CCCN [DAB-Am-8]
- signs of acute toxicity (lab tests) ([2]; mice, 5 and 25 mg/kg/day DAB-Am-4, 5 mg/kg/day DAB-Am-8): no conclusive signs of acute toxicity
- signs of distress during the observation period ([2]; mice, low dose 5 mg/kg/day): no significant signs
- %Lymphocyte [2, 3]: 75%
- Hematocrit [2, 3]: 42
- WBC [2, 3]: 6
- AST [2, 4]: 437
- Alb:Glob Ratio [2, 4]: 2
- Albumin [2, 4]: 3
- Amylase [2, 4]: 730
- Bile Acids [2, 4]: 238
- Cholesterol [2, 4]: 61
- Creatine Kinase [2, 4]: 3149
- GGT [2, 4]: < 1
- Globin [2, 4]: 2
- Total Protein [2, 4]: 4
- Triglyceride [2, 4]: 114
- BUN [2, 5]: 22
- Ca:Phos Ratio [2, 5]: 1
- Calcium [2, 5]: 8
- Chloride [2, 5]: 111
- Glucose [2, 5]: 204
- K [2, 5]: 7
- Na [2, 5]: 147
- Na:K Ratio [2, 5]: 22
- Phosphorus [2, 5]: 9
- Uric Acid [2, 5]: 2
- toxicity ([2]; mouse, in vivo, 25 mg/kg/day): displayed toxicity
